Test results taken from patent publication US20230364029A1, “POLYMORPHIC FORMS OF (R)-2-HYDROXY-2-METHYL-4-(2,4,5-TRIMETHYL-3,6-DIOXOCYCLOHEXA-1,4-DIENYL)BUTANAMIDE” (PTC THERAPEUTICS, INC., priority 2014, published 2023).
Values after ≈ are worked out from the molar mass of the structure shown.

Experiments:
Type in all cases: physicochemical
[1] = Aqueous solubility (HPLC); conditions: water, ambient conditions, 24 hours of equilibration
Experimental: Aqueous solubility of Patterns A, B, C, E and F was performed using an Agilent HPLC system. Approximately 10-20 mg of each form was charged to a 2 mL glass vial loaded with a magnetic stir bar and added 2 mL of water. The samples were allowed to stir overnight at ambient conditions. Following 24 hours of equilibration the samples were centrifuged and decanted into HPLC vials. A calibration curve was generated based on Pattern A in MeOH at 0.05, 0.1, 0.5 and 1.0 mg/mL. Following injection of the standard curve, the samples were run as is.

[2] = Moisture sorption analysis; conditions: for XRPD following moisture sorption analysis: after 0-95% RH cycles at 25° C.; for Hygroscopicity: moisture sorption, 0-95% RH cycles; for Hygroscopicity / Water adsorbed / Hysteresis upon desorption: 25° C.; for Water adsorbed: at 95 %RH; for Hysteresis upon desorption: moisture sorption-desorption
Experimental: Moisture sorption analysis of the starting material was performed by equilibrating the sample at 25° C. and 50% RH to simulate ambient lab conditions. Humidity then decreased to 0% RH, increased from 0 to 95% RH, reduced from 95 to 0% RH, increased from 0 to 95 %RH and then decreased from 95 to 50% RH. Each point represents the estimated asymptotic weight for each humidity or weight. […] No hysteresis was observed upon desorption (FIG. 14).
Moisture sorption analysis of Pattern E (from the 300 mg scale lot) was performed by equilibrating the sample at 25° C. and 50% RH to simulate ambient lab conditions. Humidity was then decreased to 0% RH, increased from 0 to 95% RH, reduced from 95 to 0% RH, increased from 0 to 95 %RH and then decreased from 95 to 50% RH. Each point represents the estimated asymptotic weight for each humidity or weight. […] No hysteresis was observed upon desorption (FIG. 19).
Moisture sorption analysis of Pattern C (300 mg lot) was performed by equilibrating the sample at 25° C. and 50% RH to simulate ambient lab conditions. Humidity was then decreased to 0% RH, increased from 0 to 95% RH, reduced from 95 to 0% RH, increased from 0 to 95%RH and then decreased from 95 to 50% RH. Each point represents the estimated asymptotic weight for each humidity or weight. […] This increased the total water to about 6% which is the water content of mono-hydrate. However, upon reducing the relative humidity, the solid lost its water. Therefore this could be a channel hydrate. No hysteresis was observed upon desorption (FIG. 24).
Moisture sorption analysis of Pattern B (300 mg lot) was performed by equilibrating the sample at 25° C. and 50% RH to simulate ambient lab conditions. Humidity then decreased to 0% RH, increased from 0 to 95% RH, reduced from 95 to 0% RH, increased from 0 to 95 %RH and then decreased from 95 to 50% RH. Each point represents the estimated asymptotic weight for each humidity or weight. […] The major weight loss at the beginning was due to loss of solvent.
Moisture sorption analysis of Pattern F (from Example 6) was performed by equilibrating the sample at 25° C. and 50% RH to simulate ambient lab conditions. Humidity was then decreased to 0% RH, increased from 0 to 95% RH, reduced from 95 to 0% RH, increased from 0 to 95 %RH and then decreased from 95 to 50% RH. Each point represents the estimated asymptotic weight for each humidity or weight. […] The major weight loss at the beginning is due to loss of solvent.

[3] = 7 day elevated aqueous humidity studies; conditions: for Visual Observations 1 day / Visual Observations 7 day / XRPD [Pattern] 7 day: > 95 %RH at Ambient; for XRPD [Pattern] 7 day: form after 7 days; for Stability to elevated humidity: Example 8, summary statement
Experimental: 7 day elevated aqueous humidity experiments were performed on all Patterns A, B, C, D, E and F at ambient conditions at > 95%RH (Table 17). Approximately 30 mg of each pattern was weighed into a 4 ml glass vial. The uncovered 4 ml vial was inserted into a 20 ml scintillation vial half filled with water and capped. Following 24 hours of equilibration, visual inspection was performed to check for changes in physical appearance, however no change was observed.

SMILES | Solubility (aqueous) [1] [µg/mL] | XRPD following moisture sorption analysis [2] | Hygroscopicity [2] | Hygroscopicity ([2]; listed as Form VI) | Visual Observations 1 day [3] | Visual Observations 7 day [3] | XRPD [Pattern] 7 day [3] | XRPD [Pattern] 7 day ([3]; listed as F) | XRPD [Pattern] 7 day ([3]; listed as D) | Total water after adsorption ([2]; at 95%RH) | Water adsorbed [2] [%] | Hysteresis upon desorption [2] | XRPD [Pattern] 7 day ([3]; listed as C) | Stability to elevated humidity [3] | Hygroscopicity ([2]; listed as Form IV) | XRPD [Pattern] 7 day ([3]; listed as B) | Hygroscopicity ([2]; listed as Form II) | XRPD [Pattern] 7 day ([3]; listed as E)
CC1=C(C)C(=O)C(CC[C@@](C)(O)C(N)=O)=C(C)C1=O [Pattern F, (R)-2-hydroxy-2-methyl-4-(2,4,5-trimethyl-3,6-dioxocyclohexa-1,4-dienyl)butanamide] | 1360 (≈ 5.13 mM) | consistent with Pattern E | non-hygroscopic | non-hygroscopic | Yellow solids | Yellow solids | converted to Pattern E | Crystalline [Pattern E] | – | – | – | – | – | – | – | – | – | –
CC1=C(C)C(=O)C(CC[C@@](C)(O)C(N)=O)=C(C)C1=O [Pattern D, (R)-2-hydroxy-2-methyl-4-(2,4,5-trimethyl-3,6-dioxocyclohexa-1,4-dienyl)butanamide] | – | – | – | – | Yellow solids | Yellow solids | mixture of Patterns D/B | – | Crystalline [Mixture of Patterns D/B] | – | – | – | – | – | – | – | – | –
CC1=C(C)C(=O)C(CC[C@@](C)(O)C(N)=O)=C(C)C1=O [Pattern C, (R)-2-hydroxy-2-methyl-4-(2,4,5-trimethyl-3,6-dioxocyclohexa-1,4-dienyl)butanamide] | 1320 (≈ 4.98 mM) | consistent with Pattern C | slightly hygroscopic | – | Yellow solids | Yellow solids | no change in form | – | – | about 6% | 2 | No hysteresis | Crystalline [Pattern C] | stability to elevated humidity | – | – | – | –
CC1=C(C)C(=O)C(CC[C@@](C)(O)C(N)=O)=C(C)C1=O [Pattern B, (R)-2-hydroxy-2-methyl-4-(2,4,5-trimethyl-3,6-dioxocyclohexa-1,4-dienyl)butanamide] | 1300 (≈ 4.9 mM) | consistent with Pattern A | non-hygroscopic | – | Yellow solids | Yellow solids | mixture of Patterns A/B | – | – | – | – | – | – | – | non-hygroscopic | Crystalline [Mixture of Patterns A/B] | – | –
CC1=C(C)C(=O)C(CC[C@@](C)(O)C(N)=O)=C(C)C1=O [Pattern E, (R)-2-hydroxy-2-methyl-4-(2,4,5-trimethyl-3,6-dioxocyclohexa-1,4-dienyl)butanamide] | 1320 (≈ 4.98 mM) | consistent with Pattern E | non-hygroscopic | – | Yellow solids | Yellow solids | no change in form | – | – | – | 0.2 | No hysteresis | – | stability to elevated humidity | – | – | non-hygroscopic | Crystalline [Pattern E]
